Patent US20240415918A1, “Polypeptide and its use as a CCK receptor agonist/antagonist” (Centre for Regenerative Medicine & Health, Hong Kong …, priority 2021, published 2024)

Experiments:
[1] = tested on: tri-transgenic Alzheimer's mice (3×Tg-AD); experiment: New object recognition experiment, Alzheimer's mice; type: in vivo; conditions: intraperitoneal injection
From the text: (§1) The new object recognition experiment is a highly validated method of cognitive memory, designed by Ennaceur & Delacour (1988) based on the exploration characteristics of rodents to new environments, and this model evaluates the memory function of the tested animal based on the length of time that the animal spends in exploring familiar objects it has seen in the environment and new objects it has not seen. […] The experiment is usually divided into three stages: 1. Adaptation period: let the animal be familiar with the experimental environment, and no objects are placed in the experimental box; 2. Familiarization period: place two identical objects in the experimental box and let the mice explore freely for 10 minutes; 3. Test period: put a new object in the experimental box to replace one of the old objects, and the positions of the objects remain unchanged. The exploration of mice was recorded with video, and the time spent in exploring the old and new objects by mice was analyzed, and the proportion of time spent in exploring the new object by mice in the test period accounting for the total time for exploring the objects was calculated, that is, the recognition index of new objects.
Adult male tri-transgenic Alzheimer's mice (3×Tg-AD) were housed under standard conditions with free access to food and water. […]

[2] = tested on: neocortex of memory-deficient mice; experiment: Long-term potentiation, in vitro field potential recording of brain slices (MED64), memory-deficient mice; type: cell-based; conditions: compound injected for five minutes
From the text: An in vitro electrophysiological electrical signal recording method was used to investigate whether compound HT-267, compound HT-177, and compound HT-178 can induce long-term potentiation in the neocortex of memory-deficient mice. The MED64 low-noise multi-electrode recording system was used to record the electrical signals of brain slices cultured in vitro.

memory-deficient mice = experiment: New object recognition experiment, memory-deficient mice; type: in vivo; conditions: intraperitoneal injection
From the text: as §1
Adult memory-deficient mice were housed under standard conditions with free access to food and water. Our new object recognition experiment for testing memory-deficient mice mainly included the adaptation period, the familiarization period, and the test period. The experimental method was the same as Example 12.
We randomized memory-deficient mice into four groups, with one group given intraperitoneal injection of the solvent of drug as the control group, administration group 1 given intraperitoneal injection of the compound HT-267 solution, administration group 2 given intraperitoneal injection of the compound HT-177 solution, and administration group 3 given intraperitoneal injection of the compound HT-178 solution. After the adaptation and familiarization period training, we tested the recognition memory of several groups of mice in the test period experiment.

neocortex of senile mice = experiment: Long-term potentiation, in vitro field potential recording of brain slices (MED64), senile mice; type: cell-based; conditions: compound injected for five minutes
From the text: Long-term potentiation (LTP) is considered by researchers to be one of the memory mechanisms. We used an in vitro electrophysiological electrical signal recording method to investigate whether compound HT-267 can induce long-term potentiation in the neocortex of senile mice.
We used an MED64 low-noise multi-electrode recording system to record the electrical signals of brain slices cultured in vitro.

[3] = target: T1, CCK-B receptors (CHO-CCK) (Homo sapiens, UniProt P32239); experiment: Calcium flux (Fluo-8) antagonist test on CHO-CCK model cells in presence of CCK8; type: cell-based; conditions: in presence of 10 nM CCK8
T1 construct: expressed in transfected cells; host or cells: CHO (CHO-CCK model cells)
T1 sequence (P32239 1-447): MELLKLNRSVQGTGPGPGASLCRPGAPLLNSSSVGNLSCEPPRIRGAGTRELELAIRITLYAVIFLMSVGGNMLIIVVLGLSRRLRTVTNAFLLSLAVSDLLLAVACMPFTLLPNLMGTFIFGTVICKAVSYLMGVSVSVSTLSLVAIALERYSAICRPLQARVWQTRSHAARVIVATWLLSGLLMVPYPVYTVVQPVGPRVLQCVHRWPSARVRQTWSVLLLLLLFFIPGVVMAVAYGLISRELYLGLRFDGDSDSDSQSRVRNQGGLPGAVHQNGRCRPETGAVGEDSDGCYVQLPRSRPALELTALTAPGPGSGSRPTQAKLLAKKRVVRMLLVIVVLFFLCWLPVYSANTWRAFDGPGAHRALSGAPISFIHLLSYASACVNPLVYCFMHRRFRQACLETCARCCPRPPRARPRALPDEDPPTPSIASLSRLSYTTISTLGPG

CSCC[C@H](NC(=O)[C@@H](Cc1c[nH]c2ccccc12)NC(C)=O)C(=O)N[C@@H](CC(=O)O)C(=O)N[C@@H](Cc1cccc(Br)c1)C(N)=O [HT-267, Ac-D-Trp-Met-Asp-Phe(3-Br)-NH2]
recognition index of new objects vs control [1]: significantly higher than that of the control group | basal field potential after administration (long-term potentiation) [2]: enhanced, and the enhancement lasted for more than one hour | recognition index of new objects vs control (memory-deficient mice): significantly higher than that of the control group | basal field potential after administration (long-term potentiation) (neocortex of senile mice): enhanced, and the enhancement lasted for more than one hour | EC50 [3]: 0.0238 µM
